{"source": "paper PMC4129416", "about": "“YLT192, a Novel, Orally Active Bioavailable Inhibitor of VEGFR2 Signaling with Potent Antiangiogenic Activity and Antitumor Efficacy in Preclinical Models” (Scientific Reports, 2014)", "key": {"[1]": {"system": "HCT116 cells", "assay": "Annexin V/propidium iodide apoptosis assay, flow cytometry", "assay_type": "cell-based, human", "conditions": "48 hours; annexin V-FITC and PI staining; concentration-dependent", "description": "Figure 4 Inhibitory effects of YLT192 on tumor cells. (A) YLT192 inhibited U251 and HCT116 cells proliferation. The EdU incorporation assay was conducted on U251 and HCT116 cells after treated with YLT192 for 24 hours. The EdU-positive (red fluorescent staining) cells and Hoechst staining (blue fluorescent staining) cells represented proliferating and total cells in the fluorescent images, respectively (100×). Quantification was shown on the right panels. (B) YLT192 induced apoptosis of HCT116 cells. HCT116 cells were treated with YLT192 or vehicle for 48 hours followed by flow cytometric analysis of annexin V-FITC and PI staining. The proportion of early apoptotic cells (annexin V positive) and late apoptotic cells (annexin V and PI positive cells) were shown. Typical apoptosis-related proteins caspase 3 and Bax were detected by western blot. Each has the expression of β-actin as internal control. The full size blots were shown in the Supplemental Figure S6 online. For (A) and (B), one representative experiment of three is shown. Data are means ± SEM, *P < 0.05, **P < 0.01. (C) YLT192 inhibited oncogenic signaling pathways in tumor cells in vitro. U251 and HCT116 cells were treated with YLT192 or vehicle for 48 hours and the expression of protein in different signaling pathways were detected by western blot with specific antibodies. Blots are representative of three experiments. […]"}, "[2]": {"system": "HUVEC", "assay": "Transwell invasion assay", "assay_type": "cell-based, human", "conditions": "various concentrations; 24 hours; concentration-dependent", "from_the_text": "(§1) Cell migration is essential for ECs in angiogenesis and for cancer cells in tumor growth and metastasis. […] Cell invasion is essential for EC in angiogenesis, so we performed transwell assays to evaluate the ability of HUVEC to pass through the Matrigel and membrane barriers of the transwell in the presence of various concentrations of YLT192 or vehicle.\nFigure 2 Effects of YLT192 on HUVECs proliferation, migration, invasion and tube formation. […] Cells were wounded by the pipette and then treated with various concentrations of compounds for 24 hours. Migrated cells were quantified by manual counting (50×). […] The bottom chambers of the transwells were filled with 600 μL EGM2 containing various growth factors while the top chambers were seeded with 4 × 10^4 HUVECs in EBM2 and treated with different concentrations of compounds for 24 hours. Cells invaded through the membrane were stained and quantified (100×). […] HUVECs were seeded on Matrigel layer and treated with different concentrations of compounds. HUVECs tube formation was assessed 6 hours later (50×). One representative experiment of three is shown. […]\n(§2) HUVECs were allowed to grow into full confluence in 24-well plates and then wounded by scratching with pipette tips and washed with PBS. […] Images were taken using a ZEISS digital microscope and invading cells were counted by manual counting. […]"}, "[3]": {"system": "HUVEC", "assay": "Wound healing migration assay", "assay_type": "cell-based, human", "conditions": "24 hours", "from_the_text": "as §1\nFigure 2 Effects of YLT192 on HUVECs proliferation, migration, invasion and tube formation. […] Cells were wounded by the pipette and then treated with various concentrations of compounds for 24 hours. Migrated cells were quantified by manual counting (50×). […] The bottom chambers of the transwells were filled with 600 μL EGM2 containing various growth factors while the top chambers were seeded with 4 × 10^4 HUVECs in EBM2 and treated with different concentrations of compounds for 24 hours. Cells invaded through the membrane were stained and quantified (100×). […] HUVECs were seeded on Matrigel layer and treated with different concentrations of compounds. HUVECs tube formation was assessed 6 hours later (50×). One representative experiment of three is shown. For (A), (B) and (C), data represent the mean ± SEM of three different experiments. Each experiment was performed in duplicate.*P < 0.05, **P < 0.01. (D) YLT192 inhibited VEGF-induced phosphorylation of VEGFR2 and its downstream signal regulator p44/42 MAPK, STAT3 and AKT in HUVECs. One representative Western blot of three is presented. Each has the expression of β-actin as internal control. The full size blots were shown in the Supplemental Figure S5 online. (E) Cellular thermal shift assay showing VEGFR2 target engagement by YLT192 in intact HUVECs. One representative Western blot of two is presented. The full size blots were shown in the Supplemental Figure S6 online. […]\nas §2"}, "[4]": {"assay": "Pharmacokinetics in male wistar rats", "assay_type": "in vivo", "from_the_text": "Appropriate pharmacokinetic parameters are essential to determine the efficacy of anti-cancer drugs. We determined the pharmacokinetic characteristics of YLT192 in male wistar rats. The pharmacokinetic parameters of YLT192 are summarized in Supplementary Table S2 and the plasma concentration versus time profile is shown in Supplementary Figure S3.\nSupplementary Table S2: Pharmacokinetic parameters for YLT192 in rats (n=6 mice per group). Data are means ± SD. […]\nNote: I.V.=intravenous, P.O.=orally administration, Cmax =maximum plasma concentration, AUC=area under the curve, T1/2=half life of the inhibitor, CL=clearance , Vz=volume of distribution, F=bioavailability\nSupplementary Figure S3. Mean plasma concentration-time curves of YLT192.\nAfter I.V.(20mg/kg) and P.O.(50mg/kg) administration of YLT192 in wistar male rats, the concentration of YLT192 in the plasma was determined by HPLC (n=6 mice per group). Data are means ± SD."}, "[5]": {"conditions": "male, Wistar, rat, plasma, po, 50 mg/kg, P.O. 50 mg/kg, means ± SD, n=6"}}}
{"smiles": "CNC(=O)c1cc(Oc2ccc(NC(=O)c3cccc(OC)c3)cc2)ccn1", "note": "[YLT192]", "values": [{"measurement": "apoptosis in HCT116 cells", "setting": "[1]", "value": "increased apoptosis"}, {"measurement": "invasion of HUVECs in transwell assay", "setting": "[2]", "value": "significantly inhibited"}, {"measurement": "migration of HUVEC", "setting": "[3]; 2.5 μM, wound healing", "value": "strongly inhibited"}, {"measurement": "HUVECs migration in wound healing assay", "setting": "[3]; various concentrations", "value": "inhibited HUVECs migration"}, {"measurement": "Vz", "setting": "[4]; P.O. 50 mg/kg, means ± SD, n=6", "value": "7.84 ± 1.12", "unit": "L/kg"}, {"measurement": "half-life", "setting": "[4]; male, Wistar, rat, plasma, iv, 20 mg/kg, I.V. 20 mg/kg, means ± SD, n=6", "value": "4.1 ± 2.1", "unit": "h"}, {"measurement": "AUC(0-inf)", "setting": "[4]; male, Wistar, rat, plasma, iv, I.V. 20 mg/kg, means ± SD, n=6", "value": "65900 ± 6200", "unit": "ng·h/mL"}, {"measurement": "Vd", "setting": "[4]; male, Wistar, rat, plasma, iv, I.V. 20 mg/kg, means ± SD, n=6, read-out: Vz", "value": "1.79 ± 0.24", "unit": "L/kg"}, {"measurement": "bioavailability", "setting": "[4]; male, Wistar, rat, plasma, oral, P.O. 50 mg/kg vs I.V. 20 mg/kg, read-out: F (oral bioavailability)", "value": 50.5, "unit": "%"}, {"measurement": "Cmax", "setting": "[4]; [5]", "value": "4100 ± 400", "unit": "ng/mL"}, {"measurement": "half-life", "setting": "[4]; [5]", "value": "9.1 ± 4.1", "unit": "h"}, {"measurement": "AUC(0-inf)", "setting": "[4]; male, Wistar, rat, plasma, po, P.O. 50 mg/kg, means ± SD, n=6", "value": "83300 ± 21900", "unit": "ng·h/mL"}]}
